# Experiments:
# [1] = system: VEGF alone or VEGF associated with sFlk-1 (VEGF:Flk-1); test: Indirect and capture ELISA: reactivity with VEGF alone or VEGF:Flk-1; format: binding, human VEGF; mouse Flk-1
# Experimental: The Flk-1/SEAP protein was produced and purified as described by Tessler et al. (1994). Basically, the extracellular domain of Flk-1 (sFlk-1) was produced in Spodoptera frugiperda (Sf9) cells and purified by immunoaffinity techniques utilizing a monoclonal anti-Flk-1 antibody (1A8). sFlk-1 was then biotinylated and bound on avidin-coated plates.
# The reactivity was determined as described above for the initial screening.
# A capture ELISA was also developed. In the capture ELISA, microtiter plates were coated overnight at 4° C. with 100 ng of the indicated antibody. […] Streptavidin conjugated to peroxidase (Kirkegaard & Perry Laboratories, Inc.), diluted 1:2000, was used as a second layer and developed.
# NCI-H358 tumors = test: Prolonged treatment of established NCI-H358 xenografts (FIG. 5A); format: in vivo, mice
# Experimental: (§1) FIG. 5A and FIG. 5B. […] Treatments (T) were 100 μg of the IgG given i.p., except for the initial treatment that consisted of 500 μg of the IgG given i.v. Mean tumor volume along with the SEM is shown. At the end of the study (day 116), the mice were sacrificed and the tumors dissected out and weighed. […] The mice were treated every other day as indicated (T). […] Mean tumor volume along with the SE is shown.
# In this study, spontaneous regressions were less pronounced. […] The 3E7 treated mice began treatment with a mean tumor volume of 428 mm^3 and rose to a volume of 1326 mm^3 after approximately 14 wk, an increase of […] in volume.
# VEGFR1 (Flt-1/Fc) = test: ELISA of VEGF binding to VEGFR1-coated wells
# Experimental: FIG. 2. […] The plate was then incubated with rabbit anti-VEGF (A-20, Santa Cruz Biotechnology, Inc.) at 1 μg/ml and developed using a peroxidase conjugated goat anti-rabbit antibody. Assays were performed in triplicate. Mean percent binding in the absence of antibody is shown, together with the standard deviation.
# The assay was also performed by coating wells of a microtiter plate with either control or test IgG.
# A673 rhabdomyosarcoma = test: Treatment of established A673 tumors; set-up: species or system mice; settings: mouse, in vivo
# [2] = system: mouse VEGF in mouse 3LL Lewis Lung carcinoma tumor sections; test: Immunohistochemistry, endothelial cell staining, mouse 3LL tumor; format: binding; set-up: key: −, negative; +/−, very weak; 1+, weak; 2+, moderate; 3+, strong; 4+, very strong; settings: acetone fixed frozen sections
# Experimental: (§2) Tumors were snap frozen in liquid nitrogen and stored at −70° C. Frozen samples of tumor specimens from patients were obtained from the National Cancer Institute Cooperative Human Tissue Network (Southern Division, Birmingham, Ala.). Immunohistochemistry was performed as described by Burrows et al. (1995).
# Tumors examined through immunohistochemistry were human tumors of various types from cancer patients, transplantable human tumor xenografts of various types grown in mice, guinea pig Line 10 tumor grown in guinea pig, and mouse 3LL tumor grown in mice (see legend to Table 3 for details).
# HT1080 fibrosarcoma = test: Treatment of established HT1080 xenografts (FIG. 5B); format: in vivo, nu/nu mice; settings: 100 μg every two days
# Experimental: as §1
# (§3) Male nu/nu mice bearing subcutaneous NCI-H358 tumors or HT1080 fibrosarcoma 200-400 mm^3 in size were injected i.p. with test or control antibodies. The NCI-H358 bearing mice were treated with 100 μg of antibodies per injection three times a week during the first week and twice a week during the second and third week. The mice were then switched to 50 μg per injection every five days. The HT1080 bearing mice were treated with 100 μg of the indicated antibody or saline every other day throughout the duration of the study. In both studies, mice were sacrificed when their tumors reached 2500 mm^3 in size or earlier if tumors began to ulcerate.
# [3] = system: guinea pig VEGF in line 10 guinea pig tumor sections; test: Immunohistochemistry, endothelial cell staining, guinea pig Line 10 tumor; format: binding; set-up: key: −, negative; +/−, very weak; 1+, weak; 2+, moderate; 3+, strong; 4+, very strong; settings: acetone fixed frozen sections
# Experimental: Guinea pig line 10 hepatocellular carcinoma tumor cells (obtained from Dr. Ronald Neuman, NIH, Bethesda, Md.) were grown in strain 2 guinea pigs (NCI, Bethesda, Md.). The human tumors NCI-H358 non-small cell lung carcinoma (NSCLC), NCI-H460 NSCLC (both obtained from Dr. Adi Gazdar, UT Southwestern, Dallas, Tex.), HT29 colon adenocarcinoma (American Type Culture Collection), and L540CY Hodgkin's lymphoma (obtained from Professor V. Diehl, Cologne, Germany) were grown as xenografts in CB17 SCID mice (Charles River, Wilmington, Mass.).
# as §2
# NCI-H358 NSCLC tumors = test: Treatment of established NCI-H358 xenografts (FIG. 4); format: in vivo, nu/nu mice; settings: 50-100 μg i.p. every 3-5 days, approximately 10 weeks
# Experimental: FIG. 4. […] Mean tumor volume along with the SEM over 116 days is shown.
# as §3
# Doses were 50-100 μg every 3-5 days. […] In addition to measuring mean tumor volume (FIG. 4), photographs of the mice from each treatment group were also taken to show the differences in tumor size and appearance at the end of the study.
# Chain of VEGF alone or VEGF associated with sFlk-1 (VEGF:Flk-1) (P15692 27-191 isoform P15692-4 limits assumed): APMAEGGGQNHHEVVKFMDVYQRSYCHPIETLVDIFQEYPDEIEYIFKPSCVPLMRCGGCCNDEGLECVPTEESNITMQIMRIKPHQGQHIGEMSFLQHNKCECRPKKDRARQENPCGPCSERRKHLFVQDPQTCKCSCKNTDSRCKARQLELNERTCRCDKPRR
substance,measurement,setting,value
"2C3: anti-VEGF monoclonal antibody, IgG2a, k, produced by hybridoma ATCC PTA 1595; blocks VEGF binding to VEGFR2 but not VEGFR1 [Clone 2C3]",Predominant Reactivity,[1],VEGF
same,Mean tumor volume after approximately 14 wk of treatment,"NCI-H358 tumors; 100 μg, at start 480 mm^3 (2C3), 428 mm^3 (3E7)",84 mm^3
same,Decrease in mean tumor volume,NCI-H358 tumors; after approximately 14 wk,approximately 80%
same,Mean tumor weight at the end of the study,NCI-H358 tumors; day 116,0.054 g
same,Blocks VEGF from binding to VEGFR1,VEGFR1 (Flt-1/Fc),No
same,Effect on growth of established A673 tumors,A673 rhabdomyosarcoma,significantly slowed the growth
same,"Endothelial Cell Staining, Mouse Tumor (3LL)",[2],−
same,Effect on growth of HT1080 tumors,HT1080 fibrosarcoma,arrested the growth of the tumors
same,"Endothelial Cell Staining, Guinea Pig Tumor (Line 10)",[3],−
same,"Mean tumor volume at the end of the study, of the initial mean tumor volume",NCI-H358 NSCLC tumors,30%

# From patent US6342219B1 (Board of Regents, The University of Texas System, priority 1999, dated 2002)
